From PMC10480161, “Identification of potent and selective N-myristoyltransferase inhibitors of Plasmodium vivax liver stage hypnozoites and schizonts” (Nature Communications, 2023)
Where “and” joins values, the source holds several entries; their conditions need not be identical. Identical values can stand only once. Like-named read-outs stand apart in the source and are kept apart here.

Columns and labels:
PvNMT = PvNMT (Plasmodium vivax, UniProt A5K1A2); experiment: NMT activity assay (CPM detection of free CoA), PvNMT; conditions: for SI: enzyme selectivity, HsNMT IC50/PvNMT IC50
HsNMT1 = target: T1, HsNMT1 (Homo sapiens, UniProt P30419); experiment: NMT activity assay (CPM detection of free CoA), HsNMT
T1 sequence (P30419 1-496): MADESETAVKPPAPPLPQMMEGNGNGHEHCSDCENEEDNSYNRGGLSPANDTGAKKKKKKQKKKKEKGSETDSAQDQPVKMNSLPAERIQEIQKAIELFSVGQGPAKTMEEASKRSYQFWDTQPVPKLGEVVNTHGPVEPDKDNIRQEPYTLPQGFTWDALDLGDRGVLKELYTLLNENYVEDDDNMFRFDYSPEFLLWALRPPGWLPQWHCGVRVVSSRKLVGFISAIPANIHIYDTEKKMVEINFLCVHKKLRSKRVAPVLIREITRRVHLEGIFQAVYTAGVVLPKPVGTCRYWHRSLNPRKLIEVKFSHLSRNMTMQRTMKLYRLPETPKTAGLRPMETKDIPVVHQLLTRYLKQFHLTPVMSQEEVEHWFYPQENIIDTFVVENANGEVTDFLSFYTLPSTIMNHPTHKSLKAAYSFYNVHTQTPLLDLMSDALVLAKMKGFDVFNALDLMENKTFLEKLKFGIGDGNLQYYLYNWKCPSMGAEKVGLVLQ

P. vivax schizonts = experiment: P. vivax liver stage assay, schizonts; assay type: cell-based, Plasmodium vivax; conditions: 20 µM; for Number of liverstage Schizonts per well: 8 dpi, listed as Pi4K
Method: We next evaluated the candidate compounds against liver-stage P. vivax (Fig. 5). P. vivax sporozoites were obtained from three independent patient isolates and cultured in primary human hepatocytes from a single donor lot using a 384-well microculture system as described previously. Cells were infected and treated with NMTis at 20 µM beginning day 5 post-infection until day 8 when the infection rates were quantified by fluorescent microscopy.
Accordingly, we applied dose–response curves of all the tested NMTs on parasite isolates 2 and 3 over concentrations up to 20 µM (Fig. 5c, d, Source Data file). We observed similar kinetics for all inhibitors, with a gradual decrease in parasite load upon increasing the drug concentration. […] Nuclei were counted in each well using DAPI staining as a measure of toxicity (Supplementary Fig. 86, Supplementary Source data). We used the phosphatidylinositol 4-kinase inhibitor (PI4Ki), MMV390048, as a positive control for eliminating schizonts[37],[38].
Plasmodium vivax liver stage assays were performed as described previously. Cryopreserved primary human hepatocytes (Cat No. F00995-P) and hepatocyte culture medium (HCM) (InVitroGroTM CP Medium) were obtained from Bioreclamation IVT, Inc., (Baltimore, MD, USA). Briefly, we seeded 384-well plates with primary hepatocytes from a single donor lot at a density of 25,000 cells per well. We then infected the hepatocytes with 14,000 freshly hand-dissected sporozoites per well. Cells were exposed to the compounds at indicated concentrations from day 5 post-infection. We used Pi4K inhibitor MMV390048, at 20 µM, as a positive control to eliminate P. vivax liver schizonts. We then proceeded to feed cultures every day, replacing the compounds until day 8 post-infection. Cells were fixed with 4% PFA, permeabilized with 1% Triton X-100, blocked with 2% BSA, and stained with DAPI and PvUIS4 antibodies to detect schizonts and hypnozoites forms by confocal microscopy. For antibody dilutions, PvUIS4 (kind gift from Dr. Noah Sather, Seattle Children’s Research Institute) was diluted 1:250 and the secondary antibody was anti-mouse AlexaFluor-594 (Cat # A-11005; RRID: AB_2534073) diluted 1:1000. DAPI was diluted 1:2000. The images were processed, analyzed and outlier cells were removed using IMARIS (Bitplane Inc.) image analysis software.

HepG2 cells = experiment: HepG2 cytotoxicity assay (Live/Dead staining); conditions: for Percentage of live HepG2 cells compared with diluent controls: replicates
Method: Therefore, we assessed cytotoxicity in the human hepatoma HepG2 cell line. We required a PvNMT to HsNMT SI > 20 for further screening. HepG2 cells were exposed to the compounds at concentrations ranging from 1 to 20 µM for […], and toxicity was assessed via live-dead staining.
The viability of the HepG2 cell line following exposure to the compounds was determined by a Live/Dead cell assay kit (Invitrogen). Briefly, cells were added to a 96-well plate at a concentration of 5000 cells per well, excluding the exterior wells. Cells were exposed to the compounds at different concentrations ranging from 1 to 20 µM. Cells were washed every 24 h and supplemented with fresh doses of compounds. At 72 h post-treatment, 1 µM calcein-AM and 1 µM ethidium homodimer were added to the wells and incubated for 10 min at 37 °C. After washing with PBS, the cells were visualized with fluorescent microscopy (Keyence BZ-X700).

[1] = PvNMT IC50, mean of two or more determinations
[2] = read-out: PvNMT IC50, mean of two or more determinations
[3] = read-out: HsNMT IC50, mean of two or more determinations

Chain of PvNMT (A5K1A2 entry or part of it): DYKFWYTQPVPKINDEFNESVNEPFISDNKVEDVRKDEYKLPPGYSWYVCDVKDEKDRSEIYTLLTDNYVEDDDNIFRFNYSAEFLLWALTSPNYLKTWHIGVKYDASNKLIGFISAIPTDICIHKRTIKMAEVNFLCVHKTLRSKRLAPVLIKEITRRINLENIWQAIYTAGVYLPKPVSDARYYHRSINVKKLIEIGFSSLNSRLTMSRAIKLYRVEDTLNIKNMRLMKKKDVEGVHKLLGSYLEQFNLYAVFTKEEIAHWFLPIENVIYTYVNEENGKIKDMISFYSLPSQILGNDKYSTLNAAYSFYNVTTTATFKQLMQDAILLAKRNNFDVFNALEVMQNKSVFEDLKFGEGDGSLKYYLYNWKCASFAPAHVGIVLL

Cc1nn(C)c(C)c1CCOc1ccccc1-c1ccnc(N2CCNCC2)c1 [Compound 12c]
IC50 (PvNMT; [1]): 0.00948 µM
SI (PvNMT): 63.1
IC50 (HsNMT1): 0.599 µM

c1cncc(CCOc2cccnc2-c2ccnc(N3CCNCC3)c2)c1 [Compound 12h]
IC50 (PvNMT; [1]): 0.441 µM

c1cncc(CCOc2ccccc2-c2cccc(N3CCNCC3)c2)c1 [Compound 12i]
IC50 (PvNMT; [1]): 1.54 µM

Fc1ccc(-c2cccc(N3CCNCC3)c2)c(OCCc2cccnc2)c1 [Compound 12k]
IC50 (PvNMT; [1]): 3.12 µM

Cc1n[nH]c(C)c1CCOc1cccnc1-c1cccc(N2CCNCC2)c1 [Compound 12m]
IC50 (PvNMT; [1]): 12.5 µM

Cc1n[nH]c(C)c1CCOc1ccccc1-c1ccnc(N2CCNCC2)c1 [Compound 12n]
IC50 (PvNMT; [1]): 0.604 µM
SI (PvNMT): 65.7
IC50 (HsNMT1): 39.7 µM

Cc1n[nH]c(C)c1CCOc1cccnc1-c1ccnc(N2CCNCC2)c1 [Compound 12o]
IC50 (PvNMT; [2]): 3.12 µM

Cc1n[nH]c(C)c1CCOc1cc(F)ccc1-c1cccc(N2CCNCC2)c1 [Compound 12p]
IC50 (PvNMT; [1]): 0.368 µM
SI (PvNMT): 62.7
IC50 (HsNMT1): 23.1 µM

Cc1nn(C)c(C)c1CCOc1ccccc1-c1cc(N2CCNCC2)ncn1 [Compound 16a]
IC50 (PvNMT; [1]): 9.39 µM

Cc1nn(C)c(C)c1CCOc1cc(F)ccc1-c1cc(N2CCNCC2)ncn1 [Compound 16b]
SI (PvNMT): 164 and 164.4
IC50 (PvNMT; [2]): 0.168 µM
IC50 (HsNMT1; [3]): 27.6 µM

Fc1ccc(-c2cc(N3CCNCC3)ncn2)c(OCCc2cccnc2)c1 [Compound 16d]
IC50 (PvNMT; [1]): 3.39 µM

Cc1n[nH]c(C)c1CCOc1cc(F)ccc1-c1cc(N2CCNCC2)ncn1 [Compound 16e]
IC50 (PvNMT; [2]): 5.07 µM

Cc1n[nH]c(C)c1CCOc1ccccc1-c1cc(N2CCNCC2)ncn1 [Compound 16f]
IC50 (PvNMT; [1]): 14 µM

Cc1nn(C)c(C)c1CCOc1cccnc1-c1cccc(OCCN(C)C)c1 [Compound 26a]
IC50 (PvNMT; [1]): 0.266 µM

CN(C)CCOc1cccc(-c2ncccc2OCCc2cccnc2)c1 [Compound 26d]
IC50 (PvNMT; [1]): 14.8 µM

CN(C)CCOc1cccc(-c2ccccc2OCCc2cccnc2)c1 [Compound 26e]
IC50 (PvNMT; [1]): 12.8 µM

CN(C)CCOc1cccc(-c2ccc(F)cc2OCCc2cccnc2)c1 [Compound 26f]
IC50 (PvNMT; [2]): 0.622 µM
IC50 (HsNMT1; [3]): > 40 µM

Cc1n[nH]c(C)c1CCOc1cccnc1-c1cccc(OCCN(C)C)c1 [Compound 26g]
IC50 (PvNMT; [1]): 19.4 µM

Cc1n[nH]c(C)c1CCOc1ccccc1-c1cccc(OCCN(C)C)c1 [Compound 26h]
IC50 (PvNMT; [1]): 1.56 µM

Cc1nn(C)c(C)c1CCOc1ccc2ccccc2c1-c1cccc(OCCN(C)C)c1 [Compound 30b]
IC50 (PvNMT; [1]): 19.8 µM

CN(C)CCOc1cccc(-c2c(OCCc3cccnc3)ccc3ccccc23)c1 [Compound 30d]
IC50 (PvNMT; [1]): 7.21 µM

Cc1n[nH]c(C)c1CCOc1ccc2ccccc2c1-c1ccnc(N2CCNCC2)c1 [Compound 30e]
IC50 (PvNMT; [1]): 2.88 µM

Cc1n[nH]c(C)c1CCOc1ccc2ccccc2c1-c1cccc(OCCN(C)C)c1 [Compound 30f]
IC50 (PvNMT; [1]): 25.4 µM

CS(=O)(=O)c1ccc(-c2cnc(N)c(-c3ccc(C(F)(F)F)nc3)c2)cc1 [MMV390048, reference compound]
Number of liverstage Schizonts per well (P. vivax schizonts; isolate 2, technical replicates (Fig. 5b)): 0 per well and 1 per well (2×)
Number of liverstage Schizonts per well (P. vivax schizonts; isolate 3, technical replicates (Fig. 5b)): 2 per well and 1 per well
number of schizonts per well (in words) (P. vivax schizonts; positive control): dramatically reduced the number of schizonts per well

CN[C@@H]1C[C@H]2O[C@@](C)([C@@H]1OC)n1c3ccccc3c3c4c(c5c6ccccc6n2c5c31)C(=O)NC4 [staurosporine, Staurosporine, reference compound]
Percentage of live HepG2 cells compared with diluent controls (HepG2 cells; 1 μM): 95.8547% and 101.587%
Percentage of live HepG2 cells compared with diluent controls (HepG2 cells; 2.5 μM): 98.2188% and 92.7655%
Percentage of live HepG2 cells compared with diluent controls (HepG2 cells; 5 μM): 90.1576% and 84.8522%
Percentage of live HepG2 cells compared with diluent controls (HepG2 cells; 10 μM): 76.1985% and 71.2598%
Percentage of live HepG2 cells compared with diluent controls (HepG2 cells; 20 μM): 50.831% and 59.1843%
HepG2 cell viability (in words) (HepG2 cells; at 10–20 µM, positive control): reduced the cell viability
